Data as given in patent US20240335397A1, “USE OF POLYAMINES IN THE TREATMENT OF BRAIN TUMOURS” (priority 2021, published 2024).
Read-outs that look alike come from different tables or passages of the source.

Legend:
U87 cell line spheroid = conditions: for Invasion from spheroid: 2 wt % HA gel pre-mixed with polyamine; for Binding to HA (rank among polyamines): inferred from spheroid invasion in 2 wt % HA gel
Procedure: FIG. 3. Neutralisation of polyamine toxicity by matrix polyanions assayed in vitro. U87 cells were suspended at 5K cells per spheroid and then grown in medium in non-adherent plates for 7-10 days until seeded into 2% HA gel pre-mixed with a polyamine for 24 hours. (A) Representative microscopic images (multiplication 5×, field view: 1800 μm×2500 μm) were taken on day 2 after spheroid was seeded into the gel. (B) Area of invasion was determined by measurement of invasion distance from the centre of four independent spheroids in four directions on days 1, 2 and 3.
Strength of polyamine binding to polyanions (hyaluronic acid, GAGs) in (normal) brain ECM is a decisive factor which targets polyamine toxicity towards cancer cells rather than brain cells. When binding is strong, a polyamine will be neutralised before reaching cellular membrane which is surrounded by extracellular polyanions. When binding is weak, sufficient concentration of polyamine may kill the cell even though the cell is surrounded by polyanions. To test the binding strength of different polyamines, we developed a 3D neutralisation assay: the invasion from a neuroepithelial cancer spheroid (U87 cell line) was monitored in vitro in 2 wt % HA gel pre-mixed with different polyamines. Invasion from spheroid was indicative of cell survival and thus predictive of a strong binding of the polyamine to brain polyanions in vivo. A weak in vitro binding of a polyamine to HA manifested itself by the absence of invasion, i.e. cell poisoning, and thus was predictive of weak binding of the polyamine to brain polyanions in vivo.
In detail, polyamines were mixed with 2 wt % hyaluronic acid mixed with full MEM medium containing 10% foetal bovine serum to support cell growth to achieve the desired polyamine concentration and the resulting hyaluronic acid/polyamine gel plated in 24-well plates. One 3D tumour spheroid of U87 GBM cells was placed in each well. The invasion into the surrounding hyaluronic acid-rich matrix was imaged over several days and the invasion area measured by determining the maximum invasion distance in four orthogonal directions from the centre of the tumour spheroid and compared to controls with no polyamine in the hyaluronic acid matrix.

U87 cells [1] = assay: Acute toxicity of polyamines to U87 cells in liquid medium (CellToxGreen fluorescence, bright field images); assay type: cell-based; conditions: for EC50: Homo sapiens, U-87 MG, 1 h, U87 cells, liquid medium, 60 minutes incubation, CellToxGreen normalised to lysis buffer control, read-out: EC50 (cell death)
Procedure: FIG. 1. Comparative acute toxicity of selected linear polyamines towards cancer cell line of neuroepithelial origin. U87 cells were plated in 24-well plates and grown for about 3 days in liquid medium up to 50% confluency. Cell death was assayed via CellToxGreen (Promega) fluorescence after 60 minutes incubation with a polyamine and normalised to control in a lysis buffer.
We tested polyamine toxicity to U87 cells, an invasive cancer cell line of neuroepithelial origin, when they were plated and incubated in full MEM medium, containing 10% foetal bovine serum.

NCr nu/nu mouse brain = tested on: NCr nu/nu mouse brain
Procedure: FIG. 5. Weight gain and survival of NCr nu/nu mice after a single polyamine injection into the brain. 6 animals per group were randomised on day 0, and on day 1 injected with 10 μL of 4 and 10 mM of the following three polyamines: putrescine, spermidine and cadaverine. Animal weight, survival and behaviour was monitored for 14 days.
To test polyamine safety in vivo and assess their effect on brain function, a single injection of 10 μL into NCr nu/nu mouse brain was selected as a model. A 10 μL volume in a mouse brain correlates well with a 3 cm diameter tumour in human brain, which is a typical size, for example, for initial glioblastoma diagnosis. The injected volume is thus similar to what might be needed to be injected into a human brain tumour. Three polyamines were selected for testing: putrescine, spermidine and cadaverine. Polyamines were tested in two concentrations: the lowest concentration, 4 mM, was expected to be safe based on in vitro assays and the highest concentration, 10 mM, to show some toxicity for cadaverine at least.

U87 cells [2] = assay: 2D-scanning cell toxicity assay: polyamine injected into well of U87 cells under 3 wt % HA gel; assay type: cell-based; conditions: for Level of protection by HA of distant cells (rank): FIG. 4
Procedure: FIG. 4. […] Adherent cells were grown in 24-well plates in 3% HA gel until achieved 40-50% confluency. Non-toxic fluorescent dye—CellToxGreen (Promega)—was premixed into the gel. 30 μL of polyamine ( 1/20 of total gel volume) was injected at 6 o'clock position of the well. CellToxGreen penetrated only into the dead cells with compromised membranes, bound to their DNA and emitted green fluorescence, i.e. increase in fluorescence intensity quantified cell death. Cells were monitored for 7 days using well scanning functions of a fluorescent reader FLUOstar (BMG Labtech, Germany). (A) Drawing of a well to show the point of injection of polyamine and the fate of cells near the injection point; and a representative image of a well assembled from 44 scanned patches. The higher the fluorescence intensity of a patch, the higher was the number of dead cells. (B) Ratio of dead cell fluorescence in two opposite areas of the well. Ratio=[fluorescence intensity in 22 patches adjacent to the injection point]/[fluorescence intensity in 22 patches opposing the injection point]. […] Multiplication 5×, field view: 2500 μm×1800 μm.
When brain cancers develop, it is within the polyanion (hyaluronic acid and GAG)-enriched environment of normal brain matrix, which in the tumour vicinity is degraded, diluted by oedema while the tumour itself synthesizes new specialized matrix with very different composition to normal brain (see Example 2). […] First, a cancer cell line of the neuroepithelial origin (U87) was plated, given a day for the cells to adhere to the well bottom and then covered by HA gel as a model of the polyanion-rich, normal brain ECM. Then, a polyamine was injected at the 6 o'clock position of each well (see FIG. 4). In the vicinity of the injection point, cells were expected to die, because the initial polyamine concentration was maximal in this region and the HA gel in this region was diluted by the carrier solvent (PBS). However, cells distant from the injection point were still surrounded by undiluted HA and the HA gel was expected to sequester the polyamine as it diffused through the HA gel, providing the polyamine binds strongly to HA and there is sufficient HA (i.e. the HA is not diluted) to bind sufficient polyamine to reduce the effective polyamine concentration to below the EC50 value. Thus, cells more distant from the injection point were expected to be protected from the polyamine, for as long as the polyamine remained strongly bound to the HA gel. Cell death was imaged over the well by scanning the well bottom for the fluorescence of a mortality dye, which binds DNA of cells with impaired membrane integrity.
In detail, U87 glioblastoma cells were grown in 24-well plates at with full MEM medium containing 10% foetal bovine serum until a layer of confluent cells covered the bottom of each well (FIG. 4). This liquid media was then removed leaving a layer of cells adhered to the bottom of each well. […] This hyaluronic acid plus protein gel represents a model of human brain extracellular matrix. CEIIToxGreen is a non-toxic molecule that can only enter dead cells, where it binds to DNA and emits green fluorescence. CEIIToxGreen thus allowed us to follow cell death over time in this assay by monitoring green fluorescence.
30 μL of different concentrations of polyamine was injected at the 6 o'clock position of each well and mapped the dead cell content in each well as a function of time. Specifically, each well was mapped as 44 congruent, contiguous tiles (FIG. 4A) and cell death in a tile was assayed as the net green fluorescence intensity from the tile.

recurrent GBM = conditions: in combination with Lomustine, patients with recurrent GBM; cited from earlier work

NCCCCCCNCCCCCCN [BHMTA, bis(hexamethylene)triamine]
Concentrations showing cytotoxic effects in hyaluronic acid-rich matrix (U87 cell line spheroid): > 4000 µM

NCCCCCN [cadaverine]
EC50 (U87 cells [1]): 6 mM | Concentrations showing cytotoxic effects in hyaluronic acid-rich matrix (U87 cell line spheroid; human): > 4000 µM | Animals died after 30 min of injection (NCr nu/nu mouse brain; 10 mM, 10 μL into brain): 3 out of 6 | Further animals died within 24 hours (NCr nu/nu mouse brain; 10 mM, 10 μL into brain): 2 animals | Survival (NCr nu/nu mouse brain; 10 mM, 10 μL into brain): Only one animal survived | Weight loss of surviving animal (NCr nu/nu mouse brain; 10 mM, day 3, then fully recovered): 18% | Protection of cells in HA gel distant from injection (U87 cells [2]; 10 mM): not protected | Level of protection by HA of distant cells (rank) (U87 cells [2]; 3 wt % HA gel): lowest

NCCCCN [putrescine]
Cytotoxicity in hyaluronic acid-rich matrix compared with media (U87 cell line spheroid): almost completely abrogated | Acute toxicity in vivo (NCr nu/nu mouse brain; either concentration (4 mM, 10 mM), 10 μL into brain): Neither putrescine nor spermidine demonstrated acute toxicity | Level of protection by HA of distant cells (rank) (U87 cells [2]; 3 wt % HA gel): highest | Protection of cells in HA gel distant from injection (U87 cells [2]; both 4 mM and 10 mM): protected

NCCCCNCCCN [spermidine]
EC50 (U87 cells [1]): 13 to 14 mM | Cytotoxicity in hyaluronic acid-rich matrix compared with media (U87 cell line spheroid; 2 wt % HA gel): almost completely abrogated | Invasion from spheroid (U87 cell line spheroid): invasion from spheroid was not affected | Toxicity in 2 wt % hyaluronic acid (U87 cell line spheroid; 4-12 mM): non-toxic | Binding to HA (rank among polyamines) (U87 cell line spheroid): strongest binder | Time cells on opposite side of well remained viable (U87 cells [2]; 4-12 mM, 3 wt % HA gel): at least 7 days | Time in which cells close to injection site die (U87 cells [2]; 4-12 mM, 3 wt % HA gel): 48 to 72 h | Toxicity for U87 cells close to injection site (U87 cells [2]; 4-12 mM, 3 wt % HA gel): highly toxic | Protection of cells in HA gel distant from injection (U87 cells [2]; both 4 mM and 10 mM): protected

NCCCNCCCCNCCCN [spermine]
Mode of cell death in bright field images (U87 cells [1]; U87 cell suspensions, 10 mM and 20 mM, within 60 minutes): severe membrane disruption resulting in cell fragmentation | Invasion from spheroid (U87 cell line spheroid): invasion was strongly suppressed | Concentrations showing cytotoxic effects in hyaluronic acid-rich matrix (U87 cell line spheroid; human): > 4000 µM | Binding to HA (rank among polyamines) (U87 cell line spheroid): weakest binder | Reduction of toxicity in hyaluronic acid-rich environment compared to same cell type in medium (U87 cells [2]; 10 mM, 3 wt % HA): 3 fold less toxic | Effect on cells a few millimetres away from injection point (U87 cells [2]; 4-6 mM, 3 wt % HA gel): benign | Toxicity to cells close to injection point (U87 cells [2]; 4-6 mM, 3 wt % HA gel): toxic

Bevacizumab: monoclonal antibody against vascular endothelial growth factor (VEGF)
Increase in median progression-free survival (recurrent GBM): 0.23 months | Increase in overall survival (recurrent GBM): 1.4 months
